Where two headings read alike, the source gives them in different places.
Legend:
Format in all cases: cell-based
[1] = target: T1, α1β2γ2 GABAA receptor (β2 subunit) (Rattus norvegicus, UniProt P63138); experiment: two-electrode voltage clamp, % IGABA at […] compound, GABA EC0.[…]
T1 construct: gene Gabrb2; recombinant α1β2γ2 receptor expressed in Xenopus laevis oocytes; with GABAA α1 (Gabra1) and γ2 (Gabrg2) subunits

[2] = target: T2, α1β1γ2 GABAA receptor (β1 subunit) (Rattus norvegicus, UniProt P15431); experiment: two-electrode voltage clamp, potentiation of IGABA at GABA EC10-20
T2 construct: gene Gabrb1; recombinant α1β1γ2 receptor expressed in Xenopus laevis oocytes; with GABAA α1 (Gabra1) and γ2 (Gabrg2) subunits

[3] = target: T1, α1β2γ2 GABAA receptor (β2 subunit); experiment: as above

T1 sequence (P63138 26-474): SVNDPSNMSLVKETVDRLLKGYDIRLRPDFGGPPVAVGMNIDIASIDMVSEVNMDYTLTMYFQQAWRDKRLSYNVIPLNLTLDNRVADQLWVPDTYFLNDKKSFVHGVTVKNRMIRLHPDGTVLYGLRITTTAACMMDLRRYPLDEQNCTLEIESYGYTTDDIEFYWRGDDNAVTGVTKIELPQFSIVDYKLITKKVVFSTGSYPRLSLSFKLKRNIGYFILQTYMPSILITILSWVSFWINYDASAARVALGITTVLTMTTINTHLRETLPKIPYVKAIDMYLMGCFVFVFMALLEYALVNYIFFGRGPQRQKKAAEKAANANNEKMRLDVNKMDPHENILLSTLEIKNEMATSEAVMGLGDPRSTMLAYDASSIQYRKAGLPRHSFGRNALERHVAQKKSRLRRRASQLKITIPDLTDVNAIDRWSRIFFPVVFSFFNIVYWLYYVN
T1 sequence (P62813 28-455 partner): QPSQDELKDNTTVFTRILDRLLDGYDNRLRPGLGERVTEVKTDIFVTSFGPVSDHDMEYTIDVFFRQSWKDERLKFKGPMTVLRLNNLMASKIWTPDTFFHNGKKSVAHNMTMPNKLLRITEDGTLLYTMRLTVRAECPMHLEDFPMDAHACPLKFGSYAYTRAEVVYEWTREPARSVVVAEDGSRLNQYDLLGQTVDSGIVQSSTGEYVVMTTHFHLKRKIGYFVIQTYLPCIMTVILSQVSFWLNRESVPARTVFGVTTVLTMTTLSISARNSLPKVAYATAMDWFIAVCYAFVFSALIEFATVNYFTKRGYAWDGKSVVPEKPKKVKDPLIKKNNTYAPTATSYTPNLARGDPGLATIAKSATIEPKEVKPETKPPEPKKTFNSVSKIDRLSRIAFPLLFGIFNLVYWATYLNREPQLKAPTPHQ
T1 sequence (P18508 39-466 partner): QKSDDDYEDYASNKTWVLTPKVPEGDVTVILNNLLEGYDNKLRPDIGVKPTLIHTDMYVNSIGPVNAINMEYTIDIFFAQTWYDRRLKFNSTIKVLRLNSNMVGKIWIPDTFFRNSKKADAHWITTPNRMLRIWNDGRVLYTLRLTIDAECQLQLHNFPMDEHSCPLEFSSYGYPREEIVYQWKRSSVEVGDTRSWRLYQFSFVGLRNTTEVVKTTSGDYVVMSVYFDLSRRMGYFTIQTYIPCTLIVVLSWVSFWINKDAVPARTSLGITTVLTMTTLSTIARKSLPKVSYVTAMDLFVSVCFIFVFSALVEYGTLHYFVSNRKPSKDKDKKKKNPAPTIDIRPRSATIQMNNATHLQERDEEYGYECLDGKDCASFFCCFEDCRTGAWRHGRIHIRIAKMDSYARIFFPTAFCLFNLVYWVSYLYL
T2 sequence (P15431 26-474): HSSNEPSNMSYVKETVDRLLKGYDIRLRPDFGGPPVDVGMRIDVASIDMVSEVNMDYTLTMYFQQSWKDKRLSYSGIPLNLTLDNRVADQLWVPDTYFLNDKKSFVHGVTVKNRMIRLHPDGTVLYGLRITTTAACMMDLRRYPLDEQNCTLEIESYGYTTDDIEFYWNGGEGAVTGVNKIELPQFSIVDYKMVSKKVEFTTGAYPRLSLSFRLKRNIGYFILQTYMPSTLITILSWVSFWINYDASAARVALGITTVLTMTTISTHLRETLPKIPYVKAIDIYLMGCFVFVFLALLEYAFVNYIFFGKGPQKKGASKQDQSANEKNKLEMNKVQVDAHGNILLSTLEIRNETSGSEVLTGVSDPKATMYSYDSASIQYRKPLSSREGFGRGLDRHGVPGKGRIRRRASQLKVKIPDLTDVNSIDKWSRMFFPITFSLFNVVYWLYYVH
T2 sequence (P62813 28-455 partner): as the sequence (P62813 28-455 partner) above
T2 sequence (P18508 39-466 partner): as the sequence (P18508 39-466 partner) above

SMILES | activation at 3 µM [1] [%] | also measured
C=CCc1ccc(O)c(-c2ccccc2C)c1 [8b] | 207 ± 33 | 
C=CCc1ccc(O)c(-c2cccc(OC)c2)c1 [8f] | 136 ± 32 | 
C=CCc1ccc(O)c(-c2ccc(OC)cc2)c1 [8g] |  | EC50 ([2]; read-out: EC50): 30 µM; EC50 ([3]; read-out: EC50): ~7 µM
C=CCc1ccc(O)c(-c2cccc(C(=O)OC)c2)c1 [8i] | 406 ± 70 | 
C=CCc1ccc(O)c(-c2cc(CC=C)ccc2O)c1 [compound 1, magnolol] | 338 ± 93 | 
C=CCc1ccc(O)c(-c2ccc(O)c(CC=C)c2)c1 [compound 2, honokiol] |  | EC50 [2]: 20 µM; EC50 [3]: 20 µM
